Like-named read-outs stand apart in the source and are kept apart here.
Tests used:
[1] = molecular target: Kv11.1 (hERG) channel (Homo sapiens (Human), UniProt Q12809); assay: Kv11.1 ion channel binding assay (Predictor hERG fluorescence polarisation); conditions: class symbol marked with asterisk (*)
Experimental: D) Kv11.1 Ion Channel Binding Assay
Kv11.1 (hERG=human ether a go-go related […]) is a cardiac K^+ channel which should if possible not interact with the test substances. This interaction is determined quantitatively with the aid of the Predictor™ hERG Fluorescence Polarizations (FP) Assays from Life Technologies. In the case of this assay principle, cardiomyocyte cell membranes having a certain proportion of Kv11.1 channels are isolated. A dye-labelled Kv11.1 binding partner gives a high fluorescence polarisation signal by interaction with the Kv11.1. In the case of displacement of the dye, a reduction in the fluorescence polarisation signal occurs.
The assay is carried out automatically as follows: 15 nl of the test substances (highest concentration: 10 mM, 10 concentrations: dilution factors 1:3.16, DMSO) are transferred into an empty microtitre plates having 384 wells by means of an acoustic pipetter. 3 μl of the isolated membranes are subsequently added. Membranes and test substances are incubated at 22° C. for 15 min (+/−5 min). In the next step, the dye-labelled binding partner is added, followed by incubation at 22° C. After incubation for two hours, the measurement of the fluorescence polarisation is carried out on an Envision multimode Reader. Measured raw data are standardised with the aid of Genedata Assay Analyzer. The IC50 and % effect values are calculated in Genedata Condoseo.

[2] = test system: phospho-serine 2056 DNA-PK in HCT116 cells; assay: DNA-PK phosphorylation at serine 2056 (cellular), ELISA in bleomycin-treated HCT116 cells; assay type: cell-based; conditions: read-out: IC50 pDNA-PK
How it was run: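 Test compounds and bleomycin (10 μM) are added to adherent HCT116 cells for 6 h. Detection uses an HRP-based chemiluminescent ELISA, with phospho-DNA-PK signals standardised to total protein.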

[3] = phospho-serine 2056 DNA-PK, bleomycin-treated HCT116 cells
[4] = Homo sapiens, HCT-116, phospho-serine 2056 DNA-PK, bleomycin-treated HCT116 cells
[5] = Homo sapiens, HCT-116, 6 h, cellular, HCT116 cells, 10 μM bleomycin, six hours
[6] = Homo sapiens, HCT-116, phospho-serine 2056 DNA-PK, bleomycin-treated HCT116 cells, class symbols A-D
[7] = Homo sapiens, HCT-116, cellular DNA-PK phosphorylation at serine 2056, HCT116 cells

Kv11.1 (hERG) channel, sequence (Q12809 whole entry): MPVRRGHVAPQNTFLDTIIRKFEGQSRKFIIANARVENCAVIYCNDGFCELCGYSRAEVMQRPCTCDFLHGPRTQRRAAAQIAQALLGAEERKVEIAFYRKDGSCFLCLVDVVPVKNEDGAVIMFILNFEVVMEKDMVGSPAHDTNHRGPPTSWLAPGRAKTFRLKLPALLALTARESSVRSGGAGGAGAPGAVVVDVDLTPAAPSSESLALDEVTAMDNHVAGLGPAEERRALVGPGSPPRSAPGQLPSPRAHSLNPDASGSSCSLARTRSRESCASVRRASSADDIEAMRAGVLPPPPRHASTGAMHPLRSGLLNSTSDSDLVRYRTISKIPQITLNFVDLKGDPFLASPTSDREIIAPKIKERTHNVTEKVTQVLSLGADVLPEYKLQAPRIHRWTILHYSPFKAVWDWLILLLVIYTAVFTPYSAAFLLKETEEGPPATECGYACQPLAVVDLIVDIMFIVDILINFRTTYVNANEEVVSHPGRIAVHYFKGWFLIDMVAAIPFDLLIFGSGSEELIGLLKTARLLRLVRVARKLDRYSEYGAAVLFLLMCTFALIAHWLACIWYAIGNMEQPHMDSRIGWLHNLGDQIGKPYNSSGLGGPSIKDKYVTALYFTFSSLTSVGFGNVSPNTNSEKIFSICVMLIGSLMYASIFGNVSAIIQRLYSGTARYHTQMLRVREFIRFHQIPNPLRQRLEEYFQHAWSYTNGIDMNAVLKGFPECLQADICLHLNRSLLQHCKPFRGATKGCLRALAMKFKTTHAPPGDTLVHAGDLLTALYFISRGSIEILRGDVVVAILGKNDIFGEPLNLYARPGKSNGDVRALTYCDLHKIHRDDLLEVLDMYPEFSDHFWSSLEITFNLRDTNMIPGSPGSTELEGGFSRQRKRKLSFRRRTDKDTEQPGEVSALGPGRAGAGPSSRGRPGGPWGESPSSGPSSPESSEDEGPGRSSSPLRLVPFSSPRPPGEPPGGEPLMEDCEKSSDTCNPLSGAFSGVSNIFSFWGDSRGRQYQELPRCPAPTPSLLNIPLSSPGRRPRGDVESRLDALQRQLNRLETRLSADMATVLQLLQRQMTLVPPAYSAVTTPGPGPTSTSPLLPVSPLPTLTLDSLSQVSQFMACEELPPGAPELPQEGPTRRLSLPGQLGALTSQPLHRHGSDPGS

Row | IC50 [2, 4] [µM] | SMILES | Ki [Kv1.11 hERG] [1] | further results
1 |  | COc1nccnc1C(O)c1ccc(F)c(-c2ncnc3cc(N4CCOCC4)cc(F)c23)c1 (stereo not shown) [Example 252, [4-Fluoro-3-(5-fluoro-7-morpholin-4-yl-quinazolin-4-yl)-phenyl]-(3-methoxy-pyrazin-2-yl)-methanol] | A* | IC50 [2, 3]: < 0.5 µM
2 | 0.5 to 5 | Cc1nccnc1[C@@H](O)c1ccc(F)c(-c2ncnc3cc(N4CCOCC4)cc(F)c23)c1 [Example 251, (S)-[4-fluoro-3-(5-fluoro-7-morpholin-4-ylquinazolin-4-yl)-phenyl]-(3-methyl-pyrazin-2-yl)-methanol] | A* | 
3 |  | CNC(=O)C(c1ccc(F)c(-c2ncnc3cc(N4CCOCC4)ccc23)c1)c1ncccc1Cl (stereo not shown) [Example 230, 2-(3-Chloro-pyridin-2-yl)-2-[4-fluoro-3-(7-morpholin-4-yl-quinazolin-4-yl)-phenyl]-N-methyl-acetamide] | B* | IC50 [2, 3]: 5 to 10 µM
4 |  | COc1ccc(C(O)c2cc(-c3ncnc4cc(N5CCOCC5)cc(F)c34)c(F)cc2Cl)nn1 (single isomer, unassigned) [Example 263, [2-Chloro-4-fluoro-5-(5-fluoro-7-morpholin-4-yl-quinazolin-4-yl)-phenyl]-(6-methoxy-pyridazin-3-yl)-methanol] | A* | 
5 | 5 to 10 | COc1nnc(Cl)cc1C(O)c1ccc(F)c(-c2ncnc3cc(N4CCOCC4)ccc23)c1 (stereo not shown) [Example 286, (6-Chloro-3-methoxy-pyridazin-4-yl)-[4-fluoro-3-(7-morpholin-4-yl-quinazolin-4-yl)-phenyl]methanol (Ena 1)] | A* | 
6 | 5 to 10 | CN1N=C(C(O)c2cc(-c3ncnc4cc(N5CCOCC5)ccc34)c(F)cc2Cl)CCC1=O (stereo not shown) [Example 288, 6-{[2-Chloro-4-fluoro-5-(7-morpholin-4-yl-quinazolin-4-yl)-phenyl]hydroxy-methyl}-2-methyl-4,5-dihydro-2H-pyridazin-3-one] | A* | 
7 |  | NC(=O)C(c1ccc(F)c(-c2ncnc3cc(N4CCOCC4)ccc23)c1)c1nncc2ccsc12 (stereo not shown) [Example 284, 2-[4-Fluoro-3-(7-morpholin-4-yl-quinazolin-4-yl)-phenyl]-2-thieno-[2,3-d}pyridazin-7-yl-acetamide] | A* | 
8 |  | COC(c1ccc(F)c(-c2ncnc3cc(N4CCOCC4)ccc23)c1)c1nccnc1C (stereo not shown) [Example 352] | A* | 
9 |  | COc1nccnc1C(O)c1ccc(F)c(-c2ncnc3cc(N4CCOCC4)cc(F)c23)c1 (single isomer, unassigned) [Example 253, [4-Fluoro-3-(5-fluoro-7-morpholin-4-yl-quinazolin-4-yl)-phenyl]-(3-methoxy-pyrazin-2-yl)-methanol] | A* | 
10 |  | Cc1nccnc1C(O)c1ccc(F)c(-c2ncnc3cc(N4CCOCC4)sc23)c1 (stereo not shown) [Example 246, [4-Fluoro-3-(6-morpholin-4-yl-thieno[3,2-d}-pyrimidin-4-yl)-phenyl]-(3-methyl-pyrazin-2-yl)-methanol] | A* | 
11 |  | Cc1nccnc1C(O)c1cc(-c2ncnc3cc(N4CCOCC4)ccc23)c(F)cc1F (stereo not shown) [Example 84, [2,4-Difluoro-5-(7-morpholin-4-yl-quinazolin-4-yl)-phenyl]-(3-methyl-pyrazin-2-yl)methanol] |  | IC50 [2, 5]: < 0.5 µM
12 |  | Cc1nccnc1C(O)c1cc(-c2ncnc3cc(N4CCOCC4)ccc23)c(F)cc1F (stereo not shown) [Example 86, [2,4-Difluoro-5-(7-morpholin-4-yl-quinazolin-4-yl)-phenyl]-(3-methyl-pyrazin-2-yl)methanol] |  | IC50 ([2]; cellular, HCT116 cells, 10 μM bleomycin, six hours): < 0.5 µM
13 |  | COc1ccc(C(O)c2cc(-c3nc(Cl)nc4cc(N5CCOCC5)ccc34)c(F)cc2Cl)nn1 (stereo not shown) [Example 132, [2-Chloro-5-(2-chloro-7-morpholin-4-yl-quinazolin-4-yl)-4-fluorophenyl]-(6-methoxy-pyridazin-3-yl)-methanol] |  | IC50 [2, 6]: 0.5 to 5 µM
14 |  | Cn1c(C(O)c2cc(-c3ncnc4cc(N5CCOCC5)ccc34)c(F)cc2Cl)nccc1=O (stereo not shown) [Example 368, 2-{[2-Chloro-4-fluoro-5-(7-morpholin-4-yl-quinazolin-4-yl)-phenyl]hydroxy-methyl}-3-methyl-3H-pyrimidin-4-one] |  | IC50 [2, 7]: 5 to 10 µM
15 |  | OC(c1cc(-c2ncnc3cc(N4CCOCC4)ccc23)c(F)cc1F)c1ncnc2ccoc12 (stereo not shown) [Example 446, [2,4-Difluoro-5-(7-morpholin-4-yl-quinazolin-4-yl)-phenyl]furo[3,2-d}-pyrimidin-4-yl-methanol] |  | IC50 ([2]; cellular DNA-PK phosphorylation at serine 2056, HCT116 cells): 0.5 to 5 µM
16 |  | OC(c1cn2ccnc2cn1)c1cc(-c2ncnc3cc(N4CCOCC4)ccc23)c(F)cc1F (stereo not shown) [Example 223, [2,4-Difluoro-5-(7-morpholin-4-yl-quinazolin-4-yl)-phenyl]imidazo-[1,2-a]pyrazin-6-yl-methanol] |  | IC50 [2, 6]: 0.5 to 5 µM
17 | 10 to 30 | Cc1cnc(C(C(N)=O)c2ccc(F)c(-c3ncnc4cc(N5CCOCC5)ccc34)c2)c(C)n1 (stereo not shown) [Example 318, 2-(3,5-Dimethyl-pyrazin-2-yl)-2-[4-fluoro-3-(7-morpholin-4-yl-quinazolin-4-yl)-phenyl]acetamide] |  | 
18 | < 0.5 | Cc1nccnc1[C@H](O)c1ccc(F)c(-c2ncnc3cc(N4CCOCC4)cc(F)c23)c1 [Example 248, (R)-[4-Fluoro-3-(5-fluoro-7-morpholin-4-ylquinazolin-4-yl)-phenyl]-(3-methyl-pyrazin-2-yl)-methanol] |  | 
19 |  | CCOc1cccnc1C(O)c1ccc(F)c(-c2ncnc3cc(N4CCOCC4)ccc23)c1 (stereo not shown) [Example 463, (3-Ethoxy-pyridin-2-yl)-[4-fluoro-3-(7-morpholin-4-yl-quinazolin-4-yl)-phenyl]methanol] |  | IC50 [2, 7]: < 0.5 µM
20 | 5 to 10 | NC(=O)C(c1ccc(F)c(-c2ncnc3cc(N4CCOCC4)ccc23)c1)c1ncccc1Cl (stereo not shown) [Example 313, 2-(3-Chloro-pyridin-2-yl)-2-[4-fluoro-3-(7-morpholin-4-yl-quinazolin-4-yl)-phenyl]acetamide] |  | 
21 |  | OCCOc1nccnc1C(O)c1ccc(F)c(-c2ncnc3cc(N4CCOCC4)ccc23)c1 (stereo not shown) [Example 105, 2-(3-{[4-fluoro-3-(7-morpholin-4-yl-quinazolin-4-yl)-phenyl]hydroxy-methyl}pyrazin-2-yl-oxy)ethanol] |  | IC50 [2, 6]: 10 to 30 µM
22 |  | OC(c1ccc(Cl)nn1)c1cc(-c2ncnc3cc(N4CCOCC4)ccc23)c(F)cc1Cl (stereo not shown) [Example 41, [2-Chloro-4-fluoro-5-(7-morpholin-4-yl-quinazolin-4-yl)phenyl]-(6-chloro-pyridazin-3-yl)methanol] |  | IC50 [2, 5]: < 0.5 µM
23 |  | O=C1CCCN1c1nccnc1C(O)c1ccc(F)c(-c2ncnc3cc(N4CCOCC4)ccc23)c1 (stereo not shown) [Example 425, 1-(3-{[4-Fluoro-3-(7-morpholin-4-yl-quinazolin-4-yl)-phenyl]hydroxy-methyl}pyrazin-2-yl)-pyrrolidin-2-one] |  | IC50 [2, 7]: 10 to 30 µM
24 |  | OC(c1cc(-c2ncnc3cc(N4CCOCC4)ccc23)ccc1F)c1ncnc2ccoc12 (stereo not shown) [Example 374, [2-Fluoro-5-(7-morpholin-4-yl-quinazolin-4-yl)-phenyl]furo[3,2-d}-pyrimidin-4-yl-methanol] |  | IC50 [2, 7]: 0.5 to 5 µM
25 |  | OC(c1ccc(F)c(-c2ncnc3cc(N4CCOCC4)ccc23)c1)c1c(F)cncc1F (stereo not shown) [Example 1, (3,5-Difluoropyridin-4-yl)-[4-fluoro-3-(7-morpholin-4-ylquinazolin-4-yl)phenyl]methanol] |  | IC50 [2, 5]: 0.5 to 5 µM
26 |  | COC(=O)COc1ccc(C(O)c2cc(-c3ncnc4cc(N5CCOCC5)ccc34)c(F)cc2Cl)nn1 (stereo not shown) [Example 114, (6-{[2-Chloro-4-fluoro-5-(7-morpholin-4-yl-quinazolin-4-yl)-phenyl]hydroxy-methyl}pyridazin-3-yl-oxy)acetic acid methyl ester] |  | IC50 [2, 6]: 10 to 30 µM
27 | 0.5 to 5 | Cc1cnc(C(C(N)=O)c2cc(-c3ncnc4cc(N5CCOCC5)ccc34)c(F)cc2Cl)c(C)n1 (stereo not shown) [Example 301, 2-[2-Chloro-4-fluoro-5-(7-morpholin-4-yl-quinazolin-4-yl)-phenyl]-2-(3,5-dimethyl-pyrazin-2-yl)acetamide] |  | 
28 | 10 to 30 | Cn1c(C(C(N)=O)c2cc(-c3ncnc4cc(N5CCOCC5)ccc34)c(F)cc2Cl)cccc1=O (stereo not shown) [Example 312, 2-[2-Chloro-4-fluoro-5-(7-morpholin-4-yl-quinazolin-4-yl)-phenyl]-2-(1-methyl-6-oxo-1,6-dihydro-pyridin-2-yl)-acetamide] |  | 

Row | SMILES | IC50 [2, 4] [µM] | Ki [Kv1.11 hERG] [1] | further results
29 | NC(=O)C(c1cc(-c2ncnc3cc(N4CCOCC4)ccc23)c(F)cc1Cl)c1ncnn2cccc12 (stereo not shown) [Example 309, 2-[2-Chloro-4-fluoro-5-(7-morpholin-4-yl-quinazolin-4-yl)-phenyl]-2-[3H-pyrrolo[2,1-f][1,2,4]-triazin-(4E)-ylidene]-acetamide] | 10 to 30 |  | 
